# Test results published in US20090029992A1, “SUBSTITUTED PYRAZOLE COMPOUNDS” (priority 2007, published 2009).
# Columns and labels:
# [1] = biological target: T1, N-terminal His-tagged human Src (Homo sapiens, UniProt P12931); test: Src kinase inhibition assay (33P-ATP filter assay); format: biochemical
# T1 construct: His (N); purchased Upstate USA Inc, 706 Forest Street, Charlottesville, Va
# HCT116 cells = test: Whole cell cytotoxicity assay, Sulforhodamine B; format: cell-based; conditions: Homo sapiens, HCT-116, HCT116, 96 hours incubation, SRB; for GI50: read-out: GI50 HCT116 cell growth; for IC50: read-out: IC50 values in this assay (HCT116 cell growth)
# Method in brief: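 HCT116 cells (500/well) in DMEM/10% FBS/2 mM glutamine were preincubated 24 h, then exposed to compound for 96 h at 37 °C, 5% CO2, in duplicate. Cells were fixed with TCA and stained with sulforhodamine B (A570). GI50, TGI and LC50 were derived relative to a time-zero plate and an untreated control.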
# [2] = group with IC50 greater than 100 nM
# T1 sequence (P12931 whole entry): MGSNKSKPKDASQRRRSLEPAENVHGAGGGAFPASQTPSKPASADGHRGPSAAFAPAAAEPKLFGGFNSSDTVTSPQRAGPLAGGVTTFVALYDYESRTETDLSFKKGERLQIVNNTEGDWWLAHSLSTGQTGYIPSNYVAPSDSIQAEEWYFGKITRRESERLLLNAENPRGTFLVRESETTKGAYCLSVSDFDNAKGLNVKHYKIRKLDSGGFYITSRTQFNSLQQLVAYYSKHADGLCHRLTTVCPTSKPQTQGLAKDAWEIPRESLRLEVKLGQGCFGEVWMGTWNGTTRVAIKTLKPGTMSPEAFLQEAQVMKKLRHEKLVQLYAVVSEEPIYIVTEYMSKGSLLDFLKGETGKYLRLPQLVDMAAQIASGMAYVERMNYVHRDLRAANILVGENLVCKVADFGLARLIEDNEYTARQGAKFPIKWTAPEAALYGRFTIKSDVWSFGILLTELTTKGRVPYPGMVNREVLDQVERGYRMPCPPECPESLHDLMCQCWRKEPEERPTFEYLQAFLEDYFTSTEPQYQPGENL
Structure (SMILES),IC50 ([1]; 40 minutes at room temperature) [nM],GI50 (HCT116 cells) [nM],"IC50 [1, 2] [nM]",IC50 (HCT116 cells) [nM]
"COc1ccc(-c2nc(Nc3cc(C)[nH]n3)cc(N(C)CCN(C)C)n2)cc1 [Compound 54, N^4-(2-(dimethylamino)ethyl)-2-(4-methoxyphenyl)-N^4-methyl-N^6-(5-methyl-1H-pyrazol-3-yl)pyrimidine-4,6-diamine]",≤ 100,≤ 1000,–,–
"COCCN(C)c1cc(Nc2cc(C)[nH]n2)nc(-c2cccc(Cl)c2)n1 [Compound 62, 2-(3-chlorophenyl)-N^4-(2-methoxyethyl)-N^4-methyl-N^6-(5-methyl-1H-pyrazol-3-yl)pyrimidine-4,6-diamine]",–,–,≤ 1000,1000 to 10000
"Cc1cc(Nc2cc(N3CCN(C)CC3)nc(-c3ccc(C(C)(C)C)cc3)n2)n[nH]1 [Compound 82, 2-(4-tert-butylphenyl)-N-(5-methyl-1H-pyrazol-3-yl)-6-(4-methylpiperazin-1-yl)pyrimidin-4-amine]",≤ 100,–,–,1000 to 10000
"Cc1cc(Nc2cc(N3CCN(C)CC3)nc(-c3ccc(N(C)C)cc3)n2)n[nH]1 [Compound 85, 2-(4-(dimethylamino)prenyl)-N-(b-methyl-1H-pyrazol-3-yl)-6-(4-methylpiperazin-1-yl)pyrimidin-4-amine]",≤ 100,≤ 1000,–,–
"Cc1cc(Nc2cc(N3CCN(C)CC3)nc(-c3cccc(N(C)C)c3)n2)n[nH]1 [Compound 86, 2-(3-(dimethylamino)phenyl)-N-(5-methyl-1H-pyrazol-3-yl)-b-(4-methylpiperazin-1-yl)pyrimidin-4-amine]",≤ 100,≤ 1000,–,–
"Cc1cc(Nc2cc(N3CCN(C)CC3)nc(-c3cccnc3)n2)n[nH]1 [Compound 89, N-(5-methyl-1H-pyrazol-3-yl)-6-(4-methylpiperazin-1-yl)-2-(pyridin-3-yl)pyrimidin-4-amine]",≤ 100,–,–,1000 to 10000
"Cc1cc(Nc2cc(N3CCN(C)CC3)nc(-c3cccc(C(F)(F)F)c3)n2)n[nH]1 [Compound 101, N-(5-methyl-1H-pyrazol-3-yl)-6-(4-methylpiperazin-1-yl)-2-(3-(trifluoromethyl)phenyl)pyrimidin-4-amine]",–,–,≤ 1000,1000 to 10000
"COCCN(C)c1cc(Nc2cc(C)[nH]n2)nc(-c2cccc(N(C)C)c2)n1 [Compound 119, 2-(3-(dimethylamino)phenyl)-N^4-(2-methoxyethyl)-N^4-methyl-N^6-(5-methyl-1H-pyrazol-3-yl)pyrimidine-4,6-diamine]",≤ 100,–,–,1000 to 10000
"Cc1cc(Nc2cc(NC3CCOCC3)nc(-c3ccc4c(c3)OCO4)n2)n[nH]1 [Example 132, 2-(benzo[d][1,3]dioxol-5-yl)-N^4-(5-methyl-1H-pyrazol-3-yl)-N^6-(tetrahydro-2H-pyran-4-yl)pyrimidine-4,6-diamine]",≤ 100,–,–,1000 to 10000
"Cc1cc(Nc2cc(N3CCN(C)CC3)nc(-c3cccc4ccccc34)n2)n[nH]1 [Example 134, N-(5-methyl-1H-pyrazol-3-yl)-6-(4-methylpiperazin-1-yl)-2-(naphthalen-1-yl)pyrimidin-4-amine]",≤ 100,–,–,1000 to 10000
"Cc1cc(Nc2cc(N3CCN(C)CC3)nc(-c3ccc4ccccc4c3)n2)n[nH]1 [Example 135, N-(5-methyl-1H-pyrazol-3-yl)-6-(4-methylpiperazin-1-yl)-2-(naphthalen-2-yl)pyrimidin-4-amine]",≤ 100,≤ 1000,–,–
"COCCN(C)c1cc(Nc2cc(C)[nH]n2)nc(-c2ccc3c(c2)OCO3)n1 [Example 153, 2-(benzo[d][1,3]dioxol-5-yl)-N^4-(2-methoxyethyl)-N^4-methyl-N^6-(5-methyl-1H-pyrazol-3-yl)pyrimidine-4,6-diamine]",–,–,≤ 1000,1000 to 10000
"Cc1cc(Nc2cc(N3CCN(C)CC3)nc(-c3cc4cc(NS(=O)(=O)C5CC5)ccc4o3)n2)n[nH]1 [Example 155, N-(2-(4-(5-methyl-1H-pyrazol-3-ylamino)-6-(4-methylpiperazin-1-yl)pyrimidin-2-yl)benzofuran-5-yl)cyclopropanesulfonamide]",≤ 100,≤ 1000,–,–
"Cc1cc(Nc2cc(NC3CCOCC3)nc(-c3cc4cc(NS(=O)(=O)C5CC5)ccc4o3)n2)n[nH]1 [Example 156, N-(2-(4-(5-methyl-1H-pyrazol-3-ylamino)-6-(tetrahydro-2H-pyran-4-ylamino)pyrimidin-2-yl)benzofuran-5-yl)cyclopropanesulfonamide]",≤ 100,–,–,1000 to 10000
"Cc1cc(Nc2cc(NC3CCOCC3)nc(-c3ccc(-c4ccccc4)cc3)n2)n[nH]1 [Example 158, 2-(biphenyl-4-yl)-N^4-(5-methyl-1H-pyrazol-3-yl)-N^6-(tetrahydro-2H-pyran-4-yl)pyrimidine-4,6-diamine]",–,–,≤ 1000,1000 to 10000
"Cc1cc(Nc2cc(NC3CCOCC3)nc(-c3cccc(-c4ccccc4)c3)n2)n[nH]1 [Example 159, 2-(biphenyl-3-yl)-N^4-(5-methyl-1H-pyrazol-3-yl)-N^6-(tetrahydro-2H-pyran-4-yl)pyrimidine-4,6-diamine]",–,–,≤ 1000,1000 to 10000

Structure (SMILES),IC50 ([1]; 40 minutes at room temperature) [nM],GI50 (HCT116 cells) [nM],"IC50 [1, 2] [nM]",IC50 (HCT116 cells) [nM]
"Cc1cc(Nc2cc(N3CCN(C)CC3)nc(-c3ccc(C#N)cc3)n2)n[nH]1 [Example 160, 4-(4-(5-methyl-1H-pyrazol-3-ylamino)-6-(4-methylpiperazin-1-yl)pyrimidin-2-yl)benzonitrile]",≤ 100,≤ 1000,–,–
"Cc1cc(Nc2cc(N3CCN(C)CC3)nc(-c3ccc([N+](=O)[O-])cc3)n2)n[nH]1 [Example 164, N-(5-methyl-1H-pyrazol-3-yl)-6-(4-methylpiperazin-1-yl)-2-(4-nitrophenyl)pyrimidin-4-amine]",≤ 100,–,–,1000 to 10000
"Cc1cc(Nc2cc(N3CCN(C)CC3)nc(-c3ccc(F)c(F)c3)n2)n[nH]1 [Example 168, 2-(3,4-difluorophenyl)-N-(5-methyl-1H-pyrazol-3-yl)-6-(4-methylpiperazin-1-yl)pyrimidin-4-amine]",≤ 100,≤ 1000,–,–
"Cc1cc(C)cc(-c2nc(Nc3cc(C)[nH]n3)cc(N3CCN(C)CC3)n2)c1 [Example 169, 2-(3,5-dimethylphenyl)-N-(5-methyl-1H-pyrazol-3-yl)-6-(4-methylpiperazin-1-yl)pyrimidin-4-amine]",–,≤ 1000,≤ 1000,–
"COCCN(C)c1cc(Nc2cc(C)[nH]n2)nc(-c2ccccc2)n1 [Example 171, N^4-(2-methoxyethyl)-N^4-methyl-N^6-(5-methyl-1H-pyrazol-3-yl)-2-phenyl pyrimidine-4,6-diamine]",–,–,≤ 1000,1000 to 10000
"CCc1ccccc1-c1nc(Nc2cc(C)[nH]n2)cc(NC2CCOCC2)n1 [Example 174, 2-(2-ethylphenyl)-N^4-(5-methyl-1H-pyrazol-3-yl)-N^6-(tetrahydro-2H-pyran-4-yl)pyrimidine-4,6-diamine]",–,–,≤ 1000,1000 to 10000
"CCc1ccccc1-c1nc(Nc2cc(C)[nH]n2)cc(N2CCN(C)CC2)n1 [Example 175, 2-(2-ethylphenyl)-N-(5-methyl-1H-pyrazol-3-yl)-6-(4-methylpiperazin-1-yl)pyrimidin-4-amine]",–,–,≤ 1000,1000 to 10000
"Cc1cc(Nc2cc(N3CCN(C)CC3)nc(-c3ccc4c(c3)OC(F)(F)O4)n2)n[nH]1 [Example 178, 2-(2,2-difluorobezo[d][1,3]dioxol-5-yl)-N-(5-methyl-1H-pyrazol-3-yl)-6-(4-methylpiperazin-1-yl)pyrimidin-4-amine]",≤ 100,≤ 1000,–,–
"Cc1cc(Nc2cc(N3CCN(C)CC3)nc(-c3cccc(C)c3C)n2)n[nH]1 [Example 179, 2-(2,3-dimethylphenyl)-N-(5-methyl-1H-pyrazol-3-yl)-6-(4-methylpiperazin-1-yl)pyrimidin-4-amine]",–,≤ 1000,≤ 1000,–
"COCCN(C)c1cc(Nc2cc(C)[nH]n2)nc(-c2cc(F)ccc2F)n1 [Example 184, 2-(2,5-difluorophenyl)-N^4-(2-methoxyethyl)-N^4-methyl-N^6-(5-methyl-1H-pyrazol-3-yl)pyrimidine-4,6-diamine]",–,–,≤ 1000,1000 to 10000
"Cc1cc(Nc2cc(NC3CCOCC3)nc(-c3cc(F)ccc3F)n2)n[nH]1 [Example 185, 2-(2,5-difluorophenyl)-N^4-(5-methyl-1H-pyrazol-3-yl)-N^6-(tetrahydro-2H-pyran-4-yl)pyrimidine-4,6-diamine]",–,–,≤ 1000,1000 to 10000
"Cc1cc(Nc2cc(N3CCN(C)CC3)nc(-c3cccc(OCc4ccccc4)c3)n2)n[nH]1 [Example 188, 2-(3-(benzyloxy)phenyl)-N-(5-methyl-1H-pyrazol-3-yl)-6-(4-methylpiperazin-1-yl)pyrimidin-4-amine]",–,–,≤ 1000,1000 to 10000
"Cc1cc(Nc2cc(N3CCN(C)CC3)nc(-c3cccc(OC(F)(F)F)c3)n2)n[nH]1 [Example 192, N-(5-methyl-1H-pyrazol-3-yl)-6-(4-methylpiperazin-1-yl)-2-(3-(trifluoromethoxy)phenyl)pyrimidin-4-amine]",≤ 100,–,–,1000 to 10000
"Cc1ccc(F)c(-c2nc(Nc3cc(C)[nH]n3)cc(N3CCN(C)CC3)n2)c1 [Example 193, 2-(2-fluoro-5-methylphenyl)-N-(5-methyl-1H-pyrazol-3-yl)-6-(4-methylpiperazin-1-yl)pyrimidin-4-amine]",≤ 100,–,–,1000 to 10000
"Cc1cc(Nc2cc(N3CCN(C)CC3)nc(-c3cc(F)ccc3C)n2)n[nH]1 [Example 196, 2-(5-fluoro-2-methylphenyl)-N-(5-methyl-1H-pyrazol-3-yl)-6-(4-methylpiperazin-1-yl)pyrimidin-4-amine]",≤ 100,≤ 1000,–,–
